The source of these data is ChEMBL document CHEMBL3856187, “Cyclin Dependent Kinase 9 Inhibitors for Cancer Therapy” (J Med Chem, 2016).

Data set [1] addresses T1, Cyclin-dependent kinase 2/cyclin E1 (Homo sapiens, UniProt P24941). As to the kind of experiment: Inhibition of human recombinant GST-tagged CDK2/cyclin E expressed in Sf9 insect cells using biotin-Ttds-YISPLKSPYKISEG as substrate preincubated for 15 mins followed by substrate addition measured after 25 mins by TR-FRET assay.
Data set [2] in a line: Antiproliferative activity against human DU145 cells after 4 days by crystal violet staining based assay. Format: functional, cell-based. Particulars: DU-145, 96 h.
Data set [3] in a line: Antiproliferative activity against human HeLa cells after 4 days by crystal violet staining based assay. Format: functional, cell-based. As to conditions: 96 h.
Data set [4] is described as follows: Antiproliferative activity against human Caco2 cells after 4 days by crystal violet staining based assay. In kind it is functional, cell-based. As to conditions: Caco-2, 96 h.
Data set [5] in a line: Antiproliferative activity against human HeLa/MaTu/ADR cells after 4 days by crystal violet staining based assay. In kind it is functional, cell-based. Particulars: 96 h.
Data set [6] can be described thus: Antiproliferative activity against mouse B16F10 cells after 4 days by crystal violet staining based assay. Format: functional, cell-based. As to conditions: B16-F10, 96 h.
Data set [7] in a line: Antiproliferative activity against human H460 cells after 4 days by crystal violet staining based assay. In kind it is functional, cell-based. Particulars: NCI-H460, 96 h.
The subject of the next data set is Homo sapiens. As to the kind of experiment: Anticancer activity in human AML patient assessed as improvement in remission rate at 50 mg/m2, iv for 1 to 3 days followed by cytarabine dose at 667 mg/m2/day as 72 hrs continuous infusion for 6 to 8 days and mitoxantrone at 40 mg/m2 administered on day 9. Format: functional.
A short description of data set [8]: Cytotoxicity against human HeLa cells assessed as decrease in cell viability after 72 hrs by MTT assay. Format: toxicity, cell-based. (Tetrazolium assays rely on reduction of a dye to a coloured formazan, in cell work by metabolically active cells.)
The target of data set [9] is Cyclin-dependent kinase 4 (Homo sapiens, UniProt P11802). As to the kind of experiment: Inhibition of CDK4 (unknown origin).
Sequence of Cyclin-dependent kinase 4 (P11802 whole entry): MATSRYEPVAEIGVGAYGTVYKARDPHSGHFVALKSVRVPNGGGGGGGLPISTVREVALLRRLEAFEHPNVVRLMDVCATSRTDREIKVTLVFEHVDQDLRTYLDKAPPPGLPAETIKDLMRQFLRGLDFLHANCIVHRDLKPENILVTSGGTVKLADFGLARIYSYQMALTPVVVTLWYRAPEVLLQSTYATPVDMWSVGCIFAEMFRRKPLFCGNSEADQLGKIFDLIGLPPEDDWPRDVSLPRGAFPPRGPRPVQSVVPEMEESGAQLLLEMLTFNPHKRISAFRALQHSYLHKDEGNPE
Data set [10] deals with Cyclin-dependent kinase 1 (Homo sapiens, UniProt P06493). As to the kind of experiment: Inhibition of CDK1 (unknown origin).
Sequence of Cyclin-dependent kinase 1 (P06493 whole entry): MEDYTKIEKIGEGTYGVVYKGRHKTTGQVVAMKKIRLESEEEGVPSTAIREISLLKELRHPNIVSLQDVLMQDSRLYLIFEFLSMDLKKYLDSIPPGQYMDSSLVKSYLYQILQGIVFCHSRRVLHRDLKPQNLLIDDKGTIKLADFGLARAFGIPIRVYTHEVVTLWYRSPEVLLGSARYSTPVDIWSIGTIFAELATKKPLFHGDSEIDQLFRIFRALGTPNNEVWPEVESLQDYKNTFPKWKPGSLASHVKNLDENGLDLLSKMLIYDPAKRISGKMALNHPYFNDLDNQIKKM
Data set [11] addresses Cyclin-dependent kinase 3 (Homo sapiens, UniProt Q00526). As to the kind of experiment: Inhibition of CDK3 (unknown origin).
In data set [12] the target is Cyclin-dependent kinase 2 (Homo sapiens, UniProt P24941). As to the kind of experiment: Binding affinity to full length human CDK2 (1 to 298 residues) expressed in bacterial expression system by KINOMEscan competition assay.
Data set [13] concerns the target Cyclin-dependent kinase 9 (Homo sapiens, UniProt P50750). As to the kind of experiment: Inhibition of human CDK9 (unknown origin).
Data set [14] addresses Cyclin-dependent kinase 5 (Homo sapiens, UniProt Q00535). As to the kind of experiment: Inhibition of CDK5 (unknown origin).
The target of another data set is CDK9/cyclin T1 (Homo sapiens, UniProt P50750). As to the kind of experiment: Inhibition of recombinant human His-tagged CDK9/cyclin T1 expressed in baculovirus infected sf9 cells using (biotinyl-Ahx-(Tyr-Ser-ProThr-Ser-Pro-Ser)4-NH2 as substrate after 45 mins by [gamma-32P]ATP based microbeta scintillation counting analysis.
Sequence of CDK9/cyclin T1 (O60563 whole entry): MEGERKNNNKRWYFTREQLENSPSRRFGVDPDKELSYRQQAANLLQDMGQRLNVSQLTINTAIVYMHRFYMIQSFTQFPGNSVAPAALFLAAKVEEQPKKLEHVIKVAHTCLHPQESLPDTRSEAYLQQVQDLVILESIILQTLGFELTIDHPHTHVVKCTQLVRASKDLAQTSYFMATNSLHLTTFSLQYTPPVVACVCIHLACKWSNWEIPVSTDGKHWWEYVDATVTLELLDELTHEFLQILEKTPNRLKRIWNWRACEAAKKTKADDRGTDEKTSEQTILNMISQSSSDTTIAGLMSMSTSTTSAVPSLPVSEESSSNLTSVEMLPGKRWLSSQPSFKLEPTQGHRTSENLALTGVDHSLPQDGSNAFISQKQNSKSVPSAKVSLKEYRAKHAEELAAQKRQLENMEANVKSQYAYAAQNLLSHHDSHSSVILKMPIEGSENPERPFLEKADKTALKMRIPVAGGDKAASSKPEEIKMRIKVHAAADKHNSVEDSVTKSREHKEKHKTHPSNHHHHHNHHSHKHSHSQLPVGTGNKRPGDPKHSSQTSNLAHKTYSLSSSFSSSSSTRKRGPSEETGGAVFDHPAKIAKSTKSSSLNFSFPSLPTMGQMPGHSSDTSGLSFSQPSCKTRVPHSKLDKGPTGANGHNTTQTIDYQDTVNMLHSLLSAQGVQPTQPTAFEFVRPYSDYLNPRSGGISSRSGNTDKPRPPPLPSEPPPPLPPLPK
Sequence of CDK9/cyclin T1 (P50750 whole entry): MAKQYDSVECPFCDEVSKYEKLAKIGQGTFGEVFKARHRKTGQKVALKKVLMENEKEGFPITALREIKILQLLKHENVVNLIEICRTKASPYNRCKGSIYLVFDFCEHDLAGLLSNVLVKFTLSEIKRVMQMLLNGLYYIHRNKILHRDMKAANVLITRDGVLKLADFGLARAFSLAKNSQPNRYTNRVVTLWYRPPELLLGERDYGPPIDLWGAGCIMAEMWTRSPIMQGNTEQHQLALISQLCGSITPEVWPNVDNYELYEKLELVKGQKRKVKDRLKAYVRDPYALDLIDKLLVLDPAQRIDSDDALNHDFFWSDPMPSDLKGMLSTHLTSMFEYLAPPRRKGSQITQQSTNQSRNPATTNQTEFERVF
Data set [15] has as its target T2, CDK2/Cyclin A2 (Homo sapiens, UniProt P24941). As to the kind of experiment: Inhibition of CDK2/cyclin A (unknown origin). Format: protein-complex assay.
The target of data set [16] is Cyclin-dependent kinase 1/cyclin B1 (Homo sapiens, UniProt P06493). In kind it is protein-complex assay.
Sequence of Cyclin-dependent kinase 1/cyclin B1 (P06493 whole entry): as the sequence (P06493 whole entry) above
Sequence of Cyclin-dependent kinase 1/cyclin B1 (P14635 whole entry, further chain): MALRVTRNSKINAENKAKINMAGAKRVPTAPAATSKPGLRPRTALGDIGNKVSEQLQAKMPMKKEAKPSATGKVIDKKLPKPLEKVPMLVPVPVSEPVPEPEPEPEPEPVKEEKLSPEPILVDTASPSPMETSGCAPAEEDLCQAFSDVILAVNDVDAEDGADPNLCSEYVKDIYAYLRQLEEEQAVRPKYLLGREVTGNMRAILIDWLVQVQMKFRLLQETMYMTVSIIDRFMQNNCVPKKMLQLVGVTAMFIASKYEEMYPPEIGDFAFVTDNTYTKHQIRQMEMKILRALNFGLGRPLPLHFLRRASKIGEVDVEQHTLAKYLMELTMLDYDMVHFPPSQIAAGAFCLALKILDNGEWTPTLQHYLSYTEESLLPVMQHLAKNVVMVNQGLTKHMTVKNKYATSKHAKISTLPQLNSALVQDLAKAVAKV
Description: Inhibition of CDK1/cyclin B (unknown origin)
In data set [17] the target is Cyclin-dependent kinase 5/CDK5 activator 1 (Homo sapiens, UniProt Q00535). As to the kind of experiment: Inhibition of CDK5/p25 (unknown origin). In kind it is protein-complex assay.
Sequence of Cyclin-dependent kinase 5/CDK5 activator 1 (Q00535 whole entry): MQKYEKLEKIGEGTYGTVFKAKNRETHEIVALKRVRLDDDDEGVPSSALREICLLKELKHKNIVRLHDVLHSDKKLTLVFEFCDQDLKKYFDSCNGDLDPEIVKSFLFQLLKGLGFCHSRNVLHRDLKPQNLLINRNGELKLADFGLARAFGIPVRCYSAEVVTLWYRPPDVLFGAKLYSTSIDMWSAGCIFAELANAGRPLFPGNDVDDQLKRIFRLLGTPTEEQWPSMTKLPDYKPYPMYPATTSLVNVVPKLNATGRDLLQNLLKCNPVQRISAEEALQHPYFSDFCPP
Sequence of Cyclin-dependent kinase 5/CDK5 activator 1 (Q15078 whole entry, further chain): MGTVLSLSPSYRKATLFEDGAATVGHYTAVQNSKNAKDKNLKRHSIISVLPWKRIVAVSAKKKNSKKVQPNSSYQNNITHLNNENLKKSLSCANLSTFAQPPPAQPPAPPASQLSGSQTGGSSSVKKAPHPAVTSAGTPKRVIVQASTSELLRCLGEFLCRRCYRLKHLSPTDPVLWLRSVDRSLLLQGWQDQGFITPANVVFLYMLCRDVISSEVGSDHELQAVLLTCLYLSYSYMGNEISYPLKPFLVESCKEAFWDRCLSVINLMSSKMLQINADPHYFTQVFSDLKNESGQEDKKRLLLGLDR
The target in data set [18] is Cyclin-dependent kinase 7/ cyclin H (Homo sapiens, UniProt P50613). As to the kind of experiment: Inhibition of CDK7/cyclin H (unknown origin). In kind it is protein-complex assay.
Sequence of Cyclin-dependent kinase 7/ cyclin H (P51946 whole entry): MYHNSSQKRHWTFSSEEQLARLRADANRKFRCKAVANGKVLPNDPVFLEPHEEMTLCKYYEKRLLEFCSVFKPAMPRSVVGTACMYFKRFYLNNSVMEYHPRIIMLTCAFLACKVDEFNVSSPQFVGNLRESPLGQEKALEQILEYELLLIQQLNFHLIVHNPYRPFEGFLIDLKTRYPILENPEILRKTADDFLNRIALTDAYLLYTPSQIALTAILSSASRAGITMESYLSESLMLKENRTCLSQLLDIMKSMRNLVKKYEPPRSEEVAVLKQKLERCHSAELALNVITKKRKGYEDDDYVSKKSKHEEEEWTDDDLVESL
Sequence of Cyclin-dependent kinase 7/ cyclin H (P50613 whole entry): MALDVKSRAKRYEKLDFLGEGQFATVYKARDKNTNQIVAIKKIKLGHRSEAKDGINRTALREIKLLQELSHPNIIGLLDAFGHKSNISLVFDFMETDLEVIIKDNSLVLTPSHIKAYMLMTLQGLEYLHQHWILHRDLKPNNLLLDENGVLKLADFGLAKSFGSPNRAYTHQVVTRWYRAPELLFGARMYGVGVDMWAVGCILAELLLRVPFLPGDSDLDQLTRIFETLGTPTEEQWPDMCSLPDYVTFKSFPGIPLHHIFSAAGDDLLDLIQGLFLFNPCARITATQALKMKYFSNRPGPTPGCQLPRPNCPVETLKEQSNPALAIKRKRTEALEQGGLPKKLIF
Data set [19] deals with Cyclin-dependent kinase 4/G1/S-specific cyclin-E1 (Homo sapiens, UniProt P11802). As to the kind of experiment: Inhibition of CDK4/cyclin E (unknown origin). In kind it is protein-complex assay.
Sequence of Cyclin-dependent kinase 4/G1/S-specific cyclin-E1 (P11802 whole entry): as the sequence (P11802 whole entry) above
Sequence of Cyclin-dependent kinase 4/G1/S-specific cyclin-E1 (P24864 whole entry, further chain): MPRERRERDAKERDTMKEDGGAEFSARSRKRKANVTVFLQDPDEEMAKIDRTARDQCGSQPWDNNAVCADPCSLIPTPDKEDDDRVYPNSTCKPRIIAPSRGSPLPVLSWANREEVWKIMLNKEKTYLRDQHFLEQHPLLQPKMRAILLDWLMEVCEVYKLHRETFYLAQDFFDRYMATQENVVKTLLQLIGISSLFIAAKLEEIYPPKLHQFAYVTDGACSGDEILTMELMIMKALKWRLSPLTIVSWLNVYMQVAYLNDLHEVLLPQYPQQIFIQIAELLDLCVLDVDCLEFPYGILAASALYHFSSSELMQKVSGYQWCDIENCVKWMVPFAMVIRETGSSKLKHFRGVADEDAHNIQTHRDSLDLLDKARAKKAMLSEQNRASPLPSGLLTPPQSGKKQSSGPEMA
A short description of data set [20]: Inhibition of CDK6/cyclin D (unknown origin). Further details: species or system Homo sapiens.
The target of data set [21] is Cyclin-dependent kinase 4/cyclin D1 (Homo sapiens, UniProt P11802). As to the kind of experiment: Inhibition of human N-terminal GST-tagged CDK4/cyclin D1 expressed in baculovirus infected Sf9 insect cells using retinoblastoma (792 to 928 residues) as substrate after 30 mins by gamma32P-ATP based scintillation counting analysis.
Sequence of Cyclin-dependent kinase 4/cyclin D1 (P11802 whole entry, the tested form may be a part): as the sequence (P11802 whole entry) above
Sequence of Cyclin-dependent kinase 4/cyclin D1 (P24385 whole entry, further chain, the tested form may be a part): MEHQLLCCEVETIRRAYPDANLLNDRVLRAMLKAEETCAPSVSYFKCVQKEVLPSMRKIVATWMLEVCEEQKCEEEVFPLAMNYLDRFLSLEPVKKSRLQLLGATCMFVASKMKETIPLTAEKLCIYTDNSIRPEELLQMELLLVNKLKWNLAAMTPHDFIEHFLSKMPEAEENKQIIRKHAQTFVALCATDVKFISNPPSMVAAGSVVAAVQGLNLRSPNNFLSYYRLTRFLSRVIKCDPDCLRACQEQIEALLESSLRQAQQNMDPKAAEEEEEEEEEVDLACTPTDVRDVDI
For the next data set, the target named is CDK7/Cyclin H/MNAT1 (Homo sapiens, UniProt P50613). As to the kind of experiment: Inhibition of CDK7/cyclin H/MAT1 (unknown origin). Format: protein-complex assay.
Data set [22] concerns the target T1, Cyclin-dependent kinase 2/cyclin E1. As to the kind of experiment: Inhibition of human CDK2/cyclin E expressed in baculovirus infected Sf9 insect cells using retinoblastoma (792 to 928 residues) as substrate after 30 mins by gamma32P-ATP based scintillation counting analysis.
Data set [23] has as its target T2, CDK2/Cyclin A2. As to the kind of experiment: Inhibition of recombinant human N-terminal GST-tagged CDK2/cyclin A expressed in baculovirus expression system using retinoblastoma (792 to 928 residues) as substrate after 30 mins by gamma32P-ATP based scintillation counting analysis.

Sequence of Cyclin-dependent kinase 5 (Q00535 whole entry): as the sequence (Q00535 whole entry) above
Sequence of Cyclin-dependent kinase 9 (P50750 whole entry): as the sequence (P50750 whole entry) above

What is called IC50 is the concentration that inhibits the measured activity by half. Regarding `CS(=N)(=O)Cc1cccc(Nc2ncnc(-c3ccc(F)cc3OCc3cccc(F)c3)n2)c1` (configuration not stated), the IC50 in data set [1] was 260 nM; in data set [2], 110 nM; in [3] it was 170 nM; in data set [4] it was 80 nM; in data set [5], 100 nM; in data set [6], 100 nM. In [7], the IC50 came out at 110 nM.

Broadly, the CC50 is the concentration that lowers cell viability or growth by half. Turning to `CN1CC[C@H](c2c(O)cc(O)c3c(=O)cc(-c4ccccc4Cl)oc23)[C@H](O)C1` [ALVOCIDIB], in the data set with Homo sapiens, the Activity is 67 - 80%. For the same molecule, the CC50 at 72 h in [8] stood at 120 nM.

The Ki is the equilibrium dissociation constant of an inhibitor or competing ligand from its target. As to `COc1ccccc1-c1cc(Nc2ccc(F)c(NS(C)(=O)=O)c2)ncn1`, the Ki in data set [9] is over 1000 nM; in data set [10] it was over 1000 nM; in data set [11], over 1000 nM; in [12] it was over 1000 nM; in [13] it was 17 nM; in [14], over 1000 nM.

Turning to `Cc1c(-c2ccnc(Nc3ccc(N4CCNCC4)cc3)n2)sc(=O)n1C`, the Ki on CDK9/cyclin T1 worked out at 0.4 nM.

With `CC[C@H](Nc1nc(NCc2cnc(C)cc2C)c2ncn(C(C)C)c2n1)[C@@H](C)O` [CYC-065], the IC50 against CDK2/Cyclin A2 [15] was 5 nM; in data set [16] it was 578 nM; in data set [17], 21 nM; in data set [18] it was 193 nM; in data set [19], 232 nM.

For the molecule `CN1CC[C@@H](c2c(O)cc(O)c3c(=O)cc(-c4ccccc4Cl)oc23)[C@@H]1CO`, the IC50 was determined as 79 nM in data set [16]; 396 nM in data set [20]; 63 nM in [21]; 2870 nM against CDK7/Cyclin H/MNAT1; 2540 nM in [22]; 224 nM on CDK2/Cyclin A2 [23].
